# Test: solvent given as SMILES
smiles,measurement,setting,value
N#Cc1ccc(-c2cc(-c3ccc(N4CCCC4)cc3)nc(-c3ccccc3)n2)cc1,fluorescence lifetime,in ClC(Cl)Cl,3.3 ns
CCCCC(CC)CN1C(=O)c2cc(Oc3ccc(C(C)(C)C)cc3)c3c4c(Cl)cc5c6c(cc(Cl)c(c7c(Oc8ccc(C(C)(C)C)cc8)cc(c2c37)C1=O)c64)C(=O)N(c1c(C(C)C)cccc1C(C)C)C5=O (stereo not drawn),fluorescence lifetime,in Cc1ccccc1,6.73 ns
Cc1cc(-c2ccccc2)nc2c1ccc1nc(-c3ccccc3)cn12,fluorescence lifetime,in CC#N,6.97 ns
same,fluorescence lifetime,in CCCCOC(C)=O,6.04 ns
same,fluorescence lifetime,in CCOC(C)=O,5.98 ns
same,fluorescence lifetime,in CO,5.18 ns
same,fluorescence lifetime,in c1ccccc1,5.55 ns
N#Cc1ccc(C[C@H](N)C(=O)O)cc1,fluorescence lifetime,in C1CCOC1,3.65 ns
same,fluorescence lifetime,in CC#N,3.73 ns
same,fluorescence lifetime,in CC(C)O,4 ns
same,fluorescence lifetime,in CC(O)CO,4.28 ns
same,fluorescence lifetime,in CCCCO,4.6 ns
same,fluorescence lifetime,in CCCO,4.4 ns
same,fluorescence lifetime,in CCO,4.1 ns
same,fluorescence lifetime,in CO,6.1 ns
same,fluorescence lifetime,in NC=O,4.54 ns
same,fluorescence lifetime,in O,7 ns
same,fluorescence lifetime,in O=CO,8.1 ns
COc1ccc(/C=C/c2nc3c4ccccc4c4ccccc4c3o2)cc1,fluorescence lifetime,in CC#N,0.97 ns
CCN(CC)c1ccc(/N=N/c2nc3ccc([N+](=O)[O-])cc3s2)cc1,fluorescence lifetime,in CC#N,6.03 ns
same,fluorescence lifetime,in ClCCl,8.14 ns
C(#Cc1ccccc1)C(C#Cc1ccccc1)=Cc1ccc(C=C(C#Cc2ccccc2)C#Cc2ccccc2)cc1,fluorescence lifetime,in ClC(Cl)Cl,1.2 ns
CC(C)[Si]1(C(C)C)c2cc(C#N)ccc2-c2ccc(N(C)C)cc21,fluorescence lifetime,in C1CCCCC1,2.6 ns
same,fluorescence lifetime,in ClCCl,2.6 ns
O=C([O-])c1ccc(C(=O)[O-])c2cc3ccccc3cc12,fluorescence lifetime,in CN(C)C=O,1 ns
CCN(CC)c1ccc2c(-c3ccc(S(=O)(=O)O)cc3S(=O)(=O)[O-])c3ccc(=[N+](CC)CC)cc-3oc2c1,fluorescence lifetime,in CC#N,2.47 ns
same,fluorescence lifetime,in CCO,3 ns
same,fluorescence lifetime,in CN(C)C=O,2.91 ns
same,fluorescence lifetime,in O,1.78 ns
Nc1ncc2nc[nH]c2n1,fluorescence lifetime,in O,11.3 ns
O=c1c2cc(Cl)ccc2[nH]c2ccc(COO)cc12,fluorescence lifetime,in O,16.8 ns
c1csc(-c2ccc(-c3cccs3)s2)c1,fluorescence lifetime,in CC#N,0.2 ns
same,fluorescence lifetime,in ClCCl,0.17 ns
CC1=N/C(=C\c2cccc(N(C)C)c2)C(=O)N1C,fluorescence lifetime,in C1CCOC1,15.3 ns
same,fluorescence lifetime,in CC#N,8.6 ns
same,fluorescence lifetime,in CCCCCC,22.5 ns
COC(=O)c1[nH]c(-c2ccccc2)c2nnc3ccc(OC)cc3c12,fluorescence lifetime,in ClCCl,2.23 ns
COc1ccc(C2=c3sc(-c4ccc(OC)cc4)c(-c4ccc(OC)cc4)c3=[N+]3C2=Nc2c(-c4ccc(OC)cc4)c4sc(-c5ccc(OC)cc5)c(-c5ccc(OC)cc5)c4n2[B-]3(F)F)cc1,fluorescence lifetime,in ClC(Cl)Cl,1.53 ns
COc1ccc(/C=C/C2=CC(/C=C/c3ccc(OC)cc3)=[O+][B-](F)(F)O2)cc1,fluorescence lifetime,in CC#N,1.55 ns
same,fluorescence lifetime,in CC(C)=O,1.49 ns
same,fluorescence lifetime,in CCOC(C)=O,0.88 ns
same,fluorescence lifetime,in CCOCC,0.7 ns
same,fluorescence lifetime,in ClC(Cl)(Cl)Cl,0.5 ns
same,fluorescence lifetime,in ClCCl,1.3 ns
CCCCCCCCN1C(=O)c2ccc3c4c(-c5ccc(-n6c7ccccc7c7ccccc76)cc5)cc5c6c(ccc(c7c(-c8ccc(-n9c%10ccccc%10c%10ccccc%109)cc8)cc(c2c37)C1=O)c64)C(=O)N(CCCCCCCC)C5=O,fluorescence lifetime,in ClC(Cl)Cl,3.4 ns
O=C1O[B-]2(OC1=O)OC(c1ccccc1)=CC(c1ccc3ccccc3c1)=[O+]2,fluorescence lifetime,in CC#N,5.4 ns
same,fluorescence lifetime,in ClC(Cl)(Cl)Cl,1.6 ns
Fc1ccc(-[c+]2c3ccccc3oc3ccccc32)cc1,fluorescence lifetime,in CC#N,18.8 ns
c1ccc(-c2ccc(-c3ccc(N(c4ccccc4)c4ccccc4)cc3)c3nsnc23)cc1,fluorescence lifetime,in C1CCOC1,7.95 ns
same,fluorescence lifetime,in CC(C)=O,3.58 ns
same,fluorescence lifetime,in CCCCCC,6.77 ns
same,fluorescence lifetime,in CCOCC,7.46 ns
CCN(CC)c1ccc2cc(/C(Cl)=C/C=C/C(=C(C#N)C#N)c3ccc4c(c3)c3ccccc3n4CC)c(=O)oc2c1,fluorescence lifetime,in CC(C)=O,0.47 ns
same,fluorescence lifetime,in CCOC(C)=O,1.14 ns
same,fluorescence lifetime,in CN(C)C=O,0.86 ns
same,fluorescence lifetime,in CS(C)=O,0.36 ns
same,fluorescence lifetime,in Cc1ccccc1,1.39 ns
same,fluorescence lifetime,in ClCCl,1.82 ns
Cc1c(C)c(B(c2c(C)c(C)c(N3c4ccccc4Oc4ccccc43)c(C)c2C)c2c(C)c(C)c(N3c4ccccc4Oc4ccccc43)c(C)c2C)c(C)c(C)c1C#N,fluorescence lifetime,in c1ccc([Si](c2ccccc2)(c2ccc(-n3c4ccccc4c4ccccc43)cc2)c2ccc(-n3c4ccccc4c4ccccc43)cc2)cc1,18 ns
CC(C)(C)[Si](C)(C)C#CC1=CC2=c3cc(C#C[Si](C)(C)C(C)(C)C)c4nc(C(F)(F)C(F)(F)C(F)(F)F)nc5c(C#C[Si](C)(C)C(C)(C)C)cc(c3c54)C3=CC(C#C[Si](C)(C)C(C)(C)C)=C4N=C(C(F)(F)C(F)(F)C(F)(F)F)N=C1C4C32 (stereo not drawn),fluorescence lifetime,in C1CCOC1,2.1 ns
COc1ccc(N(c2ccc(/C=C(\C)c3ccccc3)cc2)c2ccc(/C=C(\C)c3ccccc3)cc2)cc1,fluorescence lifetime,in Cc1ccccc1,1.5 ns
Cc1cc2ccccc2cc1C,fluorescence lifetime,in C1CCCCC1,133 ns
Cc1ccc(-n2c3ccccc3c3cc(-c4ccc5[n+](c4)[B-](F)(F)n4c-5nc5c6ccccc6c6ccccc6c54)ccc32)cc1,fluorescence lifetime,in ClC(Cl)Cl,15 ns
CCCCCCCCCCCCN1C(=O)c2c(c3ccc4cc(-c5ccc(N(C)C)cc5)c(OC)cc4c3c3c2ccc2cc(-c4ccc(N(C)C)cc4)c(OC)cc23)C1=O,fluorescence lifetime,in ClCCl,5.85 ns
N#Cc1c(-n2c3ccc(Br)cc3c3cc(Br)ccc32)c(C#N)c(-n2c3ccc(Br)cc3c3cc(Br)ccc32)c(-n2c3ccc(Br)cc3c3cc(Br)ccc32)c1-n1c2ccc(Br)cc2c2cc(Br)ccc21,fluorescence lifetime,in Cc1ccccc1,0.4 ns
CC1(C)C(/C=C/C2=C(Oc3ccc(CCN=C=S)cc3)C(=C/C=C3/N(CCCS(=O)(=O)[O-])c4ccccc4C3(C)C)/CCC2)=[N+](CCCS(=O)(=O)[O-])c2ccccc21,fluorescence lifetime,in CO,0.873 ns
O=C(O)CCCCCn1c2ccccc2c(=O)c2ccccc21,fluorescence lifetime,in O,14.2 ns
FC(F)(F)c1cc2n(n1)[B-]1(c3ccccc3-c3ccccc31)[n+]1ccc3ccccc3c1-2,fluorescence lifetime,in C1CCCCC1,1.22 ns
same,fluorescence lifetime,in Cc1ccccc1,1.22 ns
same,fluorescence lifetime,in ClCCl,13.7 ns
Fc1c(-n2c3ccccc3c3ccccc32)c(-c2nnc(-c3ccccc3)o2)c(-n2c3ccccc3c3ccccc32)c(-n2c3ccccc3c3ccccc32)c1-n1c2ccccc2c2ccccc21,fluorescence lifetime,in Cc1ccccc1,3.2 ns
COc1ccc(C2=C(C)C3=C(c4c(-c5ccccn5)nc5ccccn45)c4c(C)c(-c5ccc(OC)cc5)c(C)n4[B-](F)(F)[N+]3=C2C)cc1,fluorescence lifetime,in ClCCl,3.5 ns
CCCCCCOc1ccc(C#Cc2ccc(C#CC#Cc3ccc(C#Cc4ccc(OCCCCCC)c(OCCCCCC)c4)c4nsnc34)c3nsnc23)cc1OCCCCCC,fluorescence lifetime,in CN(C)C=O,0.5 ns
same,fluorescence lifetime,in COc1ccccc1,2.2 ns
same,fluorescence lifetime,in Cc1ccccc1,1.9 ns
same,fluorescence lifetime,in ClC(Cl)Cl,2.6 ns
same,fluorescence lifetime,in ClCCCl,2 ns
same,fluorescence lifetime,in ClCCl,2.5 ns
CCOC(=O)c1ccc(C2CC(c3cccc4ccccc34)=NN2c2ccc(C)cc2)cc1 (stereo not drawn),fluorescence lifetime,in ClCCl,4.56 ns
COc1ccc(/C=C/C=C/C=C/c2ccc([N+](=O)[O-])cc2)cc1,fluorescence lifetime,in C1CCOC1,1.7 ns
same,fluorescence lifetime,in C1COCCO1,1.9 ns
same,fluorescence lifetime,in CC1CCCCC1,0.7 ns
same,fluorescence lifetime,in Cc1ccccc1,1.5 ns
C[Si](C)(C)c1cccc2c(C#N)cccc12,fluorescence lifetime,in C1CCCCC1,8 ns
Cc1cc(-n2c3ccccc3c3cc4c(cc32)C2c3ccccc3C4c3ccccc32)c(C)cc1-c1nc(-c2ccccc2)nc(-c2ccccc2)n1,fluorescence lifetime,in O=P(c1ccccc1)(c1ccccc1)c1ccccc1Oc1ccccc1P(=O)(c1ccccc1)c1ccccc1,10.5 ns
Brc1c(Br)c2ccc3c(Br)c(Br)c4ccc5ccc1c1c5c4c3c21,fluorescence lifetime,in C1CCCCC1,0.058 ns
O=c1[nH]c(=O)c2nc3ccccc3nc2[nH]1,fluorescence lifetime,in CC#N,0.35 ns
Cn1cccc1-c1ccc(C#N)cc1,fluorescence lifetime,in CC#N,5.4 ns
same,fluorescence lifetime,in CCCCCC,1.8 ns
same,fluorescence lifetime,in CCOCC,5.21 ns
CN(C)CCCN1c2ccccc2Sc2ccccc21,fluorescence lifetime,in CC#N,1.85 ns
same,fluorescence lifetime,in CO,1.75 ns
same,fluorescence lifetime,in O,2.04 ns
Cc1nc(-c2ccc(N3c4ccccc4C(c4ccccc4)(c4ccccc4)c4ccccc43)cc2)cc(-c2ccc(N3c4ccccc4C(c4ccccc4)(c4ccccc4)c4ccccc43)cc2)n1,fluorescence lifetime,in O=P(c1ccccc1)(c1ccccc1)c1ccc2oc3ccc(P(=O)(c4ccccc4)c4ccccc4)cc3c2c1,11 ns
C(=C\N1CCCC1)/c1nc2ccccc2nc1-c1ccccc1,fluorescence lifetime,in C1CCCCC1,2.3 ns
same,fluorescence lifetime,in C1CCOC1,8.42 ns
same,fluorescence lifetime,in CC#N,5.28 ns
same,fluorescence lifetime,in CC(C)=O,6.88 ns
same,fluorescence lifetime,in CCO,0.49 ns
same,fluorescence lifetime,in CO,0.15 ns
same,fluorescence lifetime,in CS(C)=O,2.97 ns
same,fluorescence lifetime,in Cc1ccccc1,6.52 ns
same,fluorescence lifetime,in ClCCl,10.2 ns
CCc1c(C)[nH]c(C2=[N+]3C(=Cc4c(C)c(CC)c(/C=C/c5ccc(N(C)C)cc5)n4[B-]3(F)F)c3ccccc32)c1C,fluorescence lifetime,in ClCCl,2.3 ns
CNc1cccc2c1-c1ccccc1C2=O,fluorescence lifetime,in C1CCCCC1,8.8 ns
same,fluorescence lifetime,in CC#N,2.2 ns
same,fluorescence lifetime,in c1ccccc1,8.4 ns
FC(F)(F)c1ccc(/C=C/c2nc3c(ccc4ccccc43)s2)cc1,fluorescence lifetime,in C1CCCCC1,0.75 ns
same,fluorescence lifetime,in CC#N,0.84 ns
COc1ccc(C2=C3C=CC(C)=[N+]3[B-](F)(F)n3c(C)ccc32)cc1,fluorescence lifetime,in C1CCCCC1,2.87 ns
same,fluorescence lifetime,in CC#N,1.6 ns
same,fluorescence lifetime,in CCOC(C)=O,2.24 ns
same,fluorescence lifetime,in CO,1.87 ns
same,fluorescence lifetime,in Cc1ccccc1,3.35 ns
same,fluorescence lifetime,in ClC(Cl)Cl,3.28 ns
CCCCCCCCOc1ccc(C2=C3C(C)=C(C#Cc4ccc(B(c5c(C)cc(C)cc5C)c5c(C)cc(C)cc5C)cc4)C(C)=[N+]3[B-](F)(F)n3c(C)c(C#Cc4ccc(B(c5c(C)cc(C)cc5C)c5c(C)cc(C)cc5C)cc4)c(C)c32)cc1,fluorescence lifetime,in CC#N,4.37 ns
same,fluorescence lifetime,in CCCCCC,5.4 ns
same,fluorescence lifetime,in ClCCl,4.39 ns
CC(C)(C)NC(=O)c1ccc2ccc3cccc4c3c2c1c1c2ccccc2c2ccccc2c41,fluorescence lifetime,in ClCCl,11.9 ns
CCn1c2ccccc2c2cc(-c3cc(-c4ccc5c(c4)c4ccccc4n5CC)nc(S(C)(=O)=O)n3)ccc21,fluorescence lifetime,in C1CCOC1,2.31 ns
O=c1oc2ccccc2cc1-c1cccc(-c2cc3ccccc3oc2=O)c1,fluorescence lifetime,in ClC(Cl)Cl,0.4 ns
Cc1ccc2ccccc2c1,fluorescence lifetime,in C1CCCCC1,114 ns
C(/C=C/c1ccc(-n2c3ccccc3c3ccccc32)cc1)=C\c1ccncc1,fluorescence lifetime,in C1COCCO1,1.32 ns
same,fluorescence lifetime,in CC#N,2.52 ns
CCOC(=O)c1ccc2c(c1)[nH]c1c3ccc(C(=O)OCC)cc3[nH]c21,fluorescence lifetime,in CCCO,4.75 ns
CC(C)(C)c1ccc2c(c1)sc1[n+]2[B-](F)(F)n2c(c3cccc4c(Br)ccc2c43)=N1,fluorescence lifetime,in ClCCl,5 ns
c1ccc(-n2cccc2)cc1,fluorescence lifetime,in CC#N,3.6 ns
same,fluorescence lifetime,in CCCCCC,3.5 ns

# From the Deep4Chem optical property database
